According to PubChem BioAssay (NCI):
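Interpolation was linear, between the two tested concentrations surrounding the appropriate level; five concentrations were tested over 48 hours in 96-well plates. TGI is the concentration that stops growth completely.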

Assays:
Assay in all cases: NCI tumour cell line growth inhibition, 48 h
[1] = system: 786-0 renal
[2] = system: A498 renal
[3] = system: A549 NSCLC
[4] = system: ACHN renal
[5] = system: CAKI-1 renal
[6] = system: CCRF-CEM leukemia
[7] = system: COLO 205 colon
[8] = system: DLD-1 colon
[9] = system: DMS 273 small cell lung
[10] = system: EKVX NSCLC
[11] = system: HCC-2998 colon
[12] = system: HCT-116 colon
[13] = system: HL-60(TB) leukemia
[14] = system: HOP-18 NSCLC
[15] = system: HOP-62 NSCLC
[16] = system: HT29 colon
[17] = system: IGROV1 ovarian
[18] = system: K-562 leukemia
[19] = system: KM12 colon
[20] = system: KM20L2 colon
[21] = system: LOX IMVI melanoma
[22] = system: LXFL 529 NSCLC
[23] = system: M14 melanoma
[24] = system: M19-MEL melanoma
[25] = system: MALME-3M melanoma
[26] = system: MOLT-4 leukemia
[27] = system: NCI-H226 lung
[28] = system: NCI-H23 lung
[29] = system: NCI-H460 lung
[30] = system: NCI-H522 lung
[31] = system: OVCAR-3 ovarian
[32] = system: OVCAR-4 ovarian
[33] = system: OVCAR-8 ovarian
[34] = system: RXF 393 renal
[35] = system: RXF-631 renal
[36] = system: SF-268 CNS
[37] = system: SF-295 CNS
[38] = system: SF-539 CNS
[39] = system: SK-MEL-2 melanoma
[40] = system: SK-MEL-28 melanoma
[41] = system: SK-MEL-5 melanoma
[42] = system: SK-OV-3 ovarian
[43] = system: SN12C renal
[44] = system: SNB-19 CNS
[45] = system: SNB-75 CNS
[46] = system: SNB-78 CNS
[47] = system: SR leukemia
[48] = system: SW-620 colon
[49] = system: TK-10 renal
[50] = system: U251 CNS
[51] = system: UACC-257 melanoma
[52] = system: UACC-62 melanoma
[53] = system: UO-31 renal
[54] = system: XF 498 CNS

Measured: TGI

Cc1cccc(C(C)(C)C)c1NC(=O)CCl
> 100 µM: all assays above
